Drawing on patent US20250332300A1 (priority 2024, published 2025), this text covers Kd and IC50 for six compounds.

In one experiment the target is human HER2 (23-652) (Homo sapiens, UniProt P04626). Briefly: Surface plasmon resonance (SPR) for assessment of peptide affinity, human HER2. In kind it is binding. The arrangement: towards human HER2 (23-652) and mouse HER2 (23-653); made in house. As for the experimental part:
Each protein was immobilized either onto a SA sensorchip (Cytiva, BR-1005-31) or CM5 sensorchip (Cytiva, BR-1005-30) to a density of 800-2000 RU. […] For the assay setup the same conditions (flow rate, running buffer, peptide dilution) as described above were used. In a first step the Anti Fc IgG Ab (from Human Antibody Capture Kit, Ref. 29234600, Cytiva) was diluted into acetate pH 5.0 at 25 ug/mL and immobilized at a flow rate of 10 uL/min over 360 s to reach a density around 6000 RU. […] The peptides were tested with an association time of 280 s followed by a dissociation time of 3000 s at a flow rate of 30 uL/min. The regeneration was done using 3 M magnesium chloride regeneration solution as obtained with a contact time of 30 s at a flow rate of 10 uL/min. Curve fitting was performed using the BiacoreTM 8K evaluation software.

The target of a further experiment is mouse HER2 (23-653) (Mus musculus, UniProt P70424). The experiment can be described thus: TR-FRET competition assay for peptide potency, mouse HER2. It counts as binding. The conditions noted are these: TR-FRET competition with Cy5 labeled peptide probe, 0.1 nM mouse HER2, 24 h incubation; read-out: moHER2 TR-FRET IC50. On the set-up: mouse HER2 (23-653) using a Cy5 labeled peptide as a probe; made in house; host or cells: mammalian cells. As for the experimental part:
Both proteins containing a His-, Avi-tag and biotin in Nterminus, were expressed in mammalian cells and produced in house. […] Standard assay conditions consist of 20 uL total volume in white 384-well plates (Greiner), in 10 mM HEPES buffer containing 150 mM NaCl, 3 mM EDTA, 0.05% Tween20 and 1% final DMSO. […] The ratiometric FRET assay readout is calculated from the ratio of the raw data of the two distinct fluorescence signals measured in time resolved mode (fluorescence 665 nm/fluorescence 620 nm). IC50 values were calculated with the standard Novartis in-house assay data analysis software (Helios software application, Novartis Institutes for BioMedical Research, unpublished) using the methods described in Comput. Methods. Programs. Biomed. 2006, 82, 31-37 (regression algorithms for nonlinear dose-response curve fitting).

[1] abbreviates: SPR, human HER2 extracellular domain, 25° C., 1:1 binding model, read-out: huHER2-SPR-ONC KD.

Each structure is given as a SMILES string. Like-named read-outs stand apart in the source and are kept apart here.

Sequence of human HER2 (23-652) (P04626 23-652): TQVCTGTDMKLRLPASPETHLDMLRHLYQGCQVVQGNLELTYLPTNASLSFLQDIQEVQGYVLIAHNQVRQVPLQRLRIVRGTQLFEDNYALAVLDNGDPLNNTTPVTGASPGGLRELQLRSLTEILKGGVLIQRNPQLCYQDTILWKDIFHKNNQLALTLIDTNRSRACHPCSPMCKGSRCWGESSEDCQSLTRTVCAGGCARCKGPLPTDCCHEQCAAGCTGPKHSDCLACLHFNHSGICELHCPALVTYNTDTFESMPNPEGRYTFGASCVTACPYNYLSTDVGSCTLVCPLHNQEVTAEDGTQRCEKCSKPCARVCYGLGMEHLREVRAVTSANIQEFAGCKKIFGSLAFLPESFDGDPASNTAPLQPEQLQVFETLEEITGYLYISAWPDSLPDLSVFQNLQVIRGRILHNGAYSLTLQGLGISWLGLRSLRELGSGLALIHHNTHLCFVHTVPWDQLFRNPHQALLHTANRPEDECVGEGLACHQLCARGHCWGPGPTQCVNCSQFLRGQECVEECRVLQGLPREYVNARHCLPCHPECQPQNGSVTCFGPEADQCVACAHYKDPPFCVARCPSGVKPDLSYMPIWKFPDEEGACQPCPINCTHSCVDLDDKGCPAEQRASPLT
Sequence of mouse HER2 (23-653) (P70424 23-653): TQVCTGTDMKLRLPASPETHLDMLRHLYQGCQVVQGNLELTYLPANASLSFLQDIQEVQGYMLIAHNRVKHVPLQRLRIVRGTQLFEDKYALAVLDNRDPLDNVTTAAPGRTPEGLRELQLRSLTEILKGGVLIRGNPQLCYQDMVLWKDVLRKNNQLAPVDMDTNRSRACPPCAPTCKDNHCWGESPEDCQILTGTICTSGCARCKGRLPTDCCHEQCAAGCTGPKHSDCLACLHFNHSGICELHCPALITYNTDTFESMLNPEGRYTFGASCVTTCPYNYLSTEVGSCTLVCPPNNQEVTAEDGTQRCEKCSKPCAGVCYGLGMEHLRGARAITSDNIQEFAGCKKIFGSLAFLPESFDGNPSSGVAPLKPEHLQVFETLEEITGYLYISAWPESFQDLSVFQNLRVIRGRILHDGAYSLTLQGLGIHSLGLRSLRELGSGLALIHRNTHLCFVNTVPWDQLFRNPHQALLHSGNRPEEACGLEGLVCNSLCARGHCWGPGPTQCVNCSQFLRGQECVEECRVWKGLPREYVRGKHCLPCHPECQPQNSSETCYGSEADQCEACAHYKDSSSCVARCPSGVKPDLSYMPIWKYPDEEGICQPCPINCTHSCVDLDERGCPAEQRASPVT

For the compound `CC[N+]1=C(/C=C/C=C/C=C2/N(CCCCCC(=O)NCCCC[C@H](NC(=O)[C@H](Cc3ccc(F)cc3)N(C)C(=O)[C@@H]3CNC(=O)CC[C@H](NC(C)=O)C(=O)N[C@@H](Cc4ccc(O)cc4)C(=O)N[C@@H](CO)C(=O)N(C)[C@@H](CCc4ccccc4)C(=O)N(C)[C@@H](CCCCNC(C)=O)C(=O)N[C@@H](Cc4c[nH]c5ccc(O)cc45)C(=O)N[C@@H](Cc4c[nH]c5ccccc45)C(=O)N[C@@H]([C@H](C)O)C(=O)N3C)C(N)=O)c3ccc(S(=O)(=O)O)cc3C2(C)C)C(C)(C)c2cc(S(=O)(=O)O)ccc21` [Example D4], the Kd at human HER2 (23-652) worked out at 0.4 nM.

As for `CC[N+]1=C(/C=C/C=C/C=C2/N(CCCCCC(=O)NCCCC[C@H](NC(=O)[C@H](Cc3ccc(F)cc3)N(C)C(=O)[C@@H]3CNC(=O)CCC[C@H](NC(C)=O)C(=O)N[C@@H](Cc4ccc(O)cc4)C(=O)N[C@@H](CO)C(=O)N(C)[C@@H](CCc4ccccc4)C(=O)N(C)[C@@H](CCCCNC(C)=O)C(=O)N[C@@H](Cc4c[nH]c5ccc(O)cc45)C(=O)N[C@@H](Cc4c[nH]c5ccccc45)C(=O)N[C@@H](C4CC4)C(=O)N3C)C(N)=O)c3ccc(S(=O)(=O)O)cc3C2(C)C)C(C)(C)c2cc(S(=O)(=O)[O-])ccc21` [Example D1], the Kd at human HER2 (23-652) (setting [1]) was less than 0.1 nM.

At human HER2 (23-652), `CC[N+]1=C(/C=C/C=C/C=C2/N(CCCCCC(=O)NCCOCCOCCOCCOCCOCCOCCOCCOCCOCCOCCC(=O)NCCCC[C@H](NC(=O)[C@H](Cc3ccc(F)cc3)N(C)C(=O)[C@@H]3CNC(=O)CCC[C@H](NC(C)=O)C(=O)N[C@@H](Cc4ccc(O)cc4)C(=O)N[C@@H](CO)C(=O)N(C)[C@@H](CCc4ccccc4)C(=O)N(C)[C@@H](CCCCNC(C)=O)C(=O)N[C@@H](Cc4c[nH]c5ccc(O)cc45)C(=O)N[C@@H](Cc4c[nH]c5ccccc45)C(=O)N[C@@H](C4CC4)C(=O)N3C)C(N)=O)c3ccc(S(=O)(=O)O)cc3C2(C)C)C(C)(C)c2cc(S(=O)(=O)[O-])ccc21` [Example D7] yielded a Kd of less than 0.1 nM.

Take `CC(=O)NCCCC[C@H]1C(=O)N[C@@H](Cc2c[nH]c3ccc(O)cc23)C(=O)N[C@@H](Cc2c[nH]c3ccccc23)C(=O)N[C@@H](C2CC2)C(=O)N(C)[C@H](C(=O)N(C)[C@@H](Cc2ccc(F)cc2)C(=O)N[C@@H](CCCCNC(=O)CN2CCN(CC(=O)O)CCN(CC(=O)O)CCN(CC(=O)O)CC2)C(N)=O)CNC(=O)CCC[C@H](NC(C)=O)C(=O)N[C@@H](Cc2ccc(O)cc2)C(=O)N[C@@H](CO)C(=O)N(C)[C@@H](CCc2ccccc2)C(=O)N1C` [Example C29]: the IC50 at mouse HER2 (23-653) came to 0.2 nM.

`CC(=O)N[C@H]1CCCC(=O)NC[C@@H](C(=O)N(C)[C@@H](Cc2ccc(F)cc2)C(=O)N[C@@H](CCCCNC(=O)CN2CCN(CC(=O)O)CCN(CC(=O)O)CCN(CC(=O)O)CC2)C(N)=O)N(C)C(=O)[C@H]([C@H](C)O)NC(=O)[C@H](Cc2c[nH]c3ccccc23)NC(=O)[C@H](Cc2c[nH]c3ccc(O)cc23)NC(=O)[C@H](CCCCNC(=O)CCO)N(C)C(=O)[C@H](CCc2ccccc2)N(C)C(=O)[C@H](CO)NC(=O)[C@H](Cc2ccc(O)cc2)NC1=O` [Example C22]: the Kd at human HER2 (23-652) (setting [1]) stood at 0.5 nM.

`CC[N+]1=C(/C=C/C=C/C=C2/N(CCCCCC(=O)NCCOCCOCCOCCOCCOCCOCCOCCOCCOCCOCCC(=O)N[C@H]3CCCC(=O)NC[C@@H](C(=O)N(C)[C@@H](Cc4ccc(F)cc4)C(=O)N[C@@H](CCCCNC(=O)CN4CCN(CC(=O)O)CCN(CC(=O)O)CCN(CC(=O)O)CC4)C(N)=O)N(C)C(=O)[C@H](C4CC4)NC(=O)[C@H](Cc4c[nH]c5ccccc45)NC(=O)[C@H](Cc4c[nH]c5ccc(O)cc45)NC(=O)[C@H](CCCCNC(C)=O)N(C)C(=O)[C@H](CCc4ccccc4)N(C)C(=O)[C@H](CO)NC(=O)[C@H](Cc4ccc(O)cc4)NC3=O)c3ccc(S(=O)(=O)O)cc3C2(C)C)C(C)(C)c2cc(S(=O)(=O)[O-])ccc21` [Example D6]: at human HER2 (23-652) (setting [1]), the Kd was determined as 0.1 nM.
